Reference: US8163771B2, “11 β-HSD1 modulators” (Exelixis, Inc., priority 2008, dated 2012)

These compounds were tested against T1, recombinant human 11 β-HSD1 (Homo sapiens, UniProt P28845) (assay: 11 β-HSD1 SPA Assay (Scintillation Proximity Assay)).
T1 construct: made in house; host or cells: E. coli
Assay type: biochemical
Procedure: (§1) Inhibition of 11 βHSD1 by test compounds was assessed in vitro by a Scintillation Proximity Assay (SPA). The assay was carried out in a 384-well assay plate in a total well volume of 26 μl and contained a mixture of tritiated cortisone substrate (40 nM), NADPH cofactor (1 mM), inhibitor in serial dilutions ([…] to 10 μM), and purified E. coli-expressed recombinant human 11 βHSD1 (30-100 nM) in assay buffer (50 mM HEPES, 100 mM KCl, 5 mM NaCl, and 2 mM MgCl2, pH7.4). Following mixing, the plate was incubated for 2 hours at room temperature. Reactions were stopped by addition of 30 μl of protein A YSi SPA beads (10 mg/ml) that had been pre-incubated with glycyrrhetinic acid (1 mM) and a monoclonal cortisol antibody (3 μg/ml). The plate was then incubated overnight at room temperature prior to reading on a Microbeta counter. Percent inhibition of each compound was calculated based on the background and the maximal signals. Wells that contained substrate without compound or enzyme were used as the background signal, while the wells that contained substrate and enzyme without any compound were used as the maximal signal. The calculation of the IC50 values for the inhibitors was performed by Activity Base.
as §1, with “β-HSD1” for “βHSD1”

T1 sequence (P28845 whole entry): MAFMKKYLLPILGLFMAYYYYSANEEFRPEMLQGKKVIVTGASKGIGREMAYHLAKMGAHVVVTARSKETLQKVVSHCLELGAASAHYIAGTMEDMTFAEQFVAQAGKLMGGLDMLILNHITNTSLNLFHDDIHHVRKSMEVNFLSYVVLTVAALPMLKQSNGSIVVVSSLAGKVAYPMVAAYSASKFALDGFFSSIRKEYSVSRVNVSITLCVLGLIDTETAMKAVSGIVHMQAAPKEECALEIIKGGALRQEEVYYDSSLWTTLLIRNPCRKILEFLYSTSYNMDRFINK

| Compound | IC50 [nM] |
| --- | --- |
| CC(C)(Oc1cc(F)c(Cl)cc1Cl)C(=O)N[C@H]1C[C@H]2CC[C@@H](C1)N2c1ccc(S(C)(=O)=O)cc1 [Example 237, 2-[(2,4-dichloro-5-fluorophenyl)oxy]-2-methyl-N-{8-[4-(methylsulfonyl)phenyl]-8-azabicyclo[3.2.1]oct-3-endo-yl}propanamide] | < 200 |
| CC(C)(Oc1ccc(Cl)cc1OC(F)(F)F)C(=O)NC1CC2CCC(C1)N2c1ccc(C(=O)N2CCC[C@H]2CO)cn1 (stereo partly drawn) [Example 455, 2-[4-chloro-2-(trifluoromethoxy)phenoxy]-n-[8-(5-{[(2s)-2-(hydroxymethyl)pyrrolidin-1-yl]carbonyl}pyridin-2-yl)-8-azabicyclo[3.2.1]oct-3-endo-yl]-2-methylpropanamide] | < 200 |
| CS(=O)(=O)c1ccc(N2[C@@H]3CC[C@H]2C[C@@H](NC(=O)C2(c4ccc(F)c(Cl)c4)CC2)C3)nc1 [Example 332, 1-(3-chloro-4-fluorophenyl)-N-{8-[5-(methylsulfonyl)pyridin-2-yl]-8-azabicyclo[3.2.1]oct-3-endo-yl}cyclopropanecarboxamide] | < 200 |
| CC(C)(Oc1cc(-c2ccc(F)cc2)ccc1Cl)C(=O)N[C@H]1C[C@H]2CC[C@@H](C1)N2c1ccc(C(N)=O)cn1 [Example 346, 6-[3-endo-({2-[(4-chloro-4′-fluorobiphenyl-3-yl)oxy]-2-methylpropanoyl}amino)-8-azabicyclo[3.2.1]oct-8-yl]pyridine-3-carboxamide] | < 200 |
| CC(C)(Oc1ccc(F)cc1C(F)(F)F)C(=O)N[C@H]1C[C@H]2CC[C@@H](C1)N2c1ccc(-c2nnn[nH]2)nc1 [Example 292, 2-{[4-fluoro-2-(trifiuoromethyl)phenyl]oxy}-2-methyl-N-{8-[6-(1H-tetrazol-5-yl)pyridin-3-yl]-8-azabicyclo[3.2.1]oct-3-endo-yl}propanamide] | < 200 |
| CC(C)(Oc1ccc(Cl)cc1)C(=O)N[C@H]1C[C@H]2CC[C@@H](C1)N2c1ccc(S(N)(=O)=O)cn1 [Example 202, N-{8-[5-(aminosulfonyl)pyridin-2-yl]-8-azabicyclo[3.2.1]oct-3-endo-yl}-2-[(4-chlorophenyl)oxy]-2-methylpropanamide] | < 200 |
| CC(=O)Nc1ccc(N2[C@@H]3CC[C@H]2C[C@@H](NC(=O)C(C)(C)Oc2ccc(Cl)cc2Cl)C3)nc1 [Example 94, N-{8-[5-(acetylamino)pyridin-2-yl]-8-azabicyclo[3.2.1]oct-3-endo-yl}-2-[(2,4-dichlorophenyl)oxy]-2-methylpropanamide] | < 200 |
| 2-[(2,4-dichlorophenyl)oxy]-N-{8-[5-(1-hydroxy-1-methylethyl)pyridin-2-yl]-8-azabicyclo[3.2.1]oct-3-endo-yl}-2-methylpropanamide [Example 53] | < 2000 |
| CC(C)(Sc1ccc(Cl)cc1Cl)C(=O)N[C@H]1C[C@H]2CC[C@@H](C1)N2c1ccc(C(N)=O)cn1 [Example 286, 6-[3-endo-({2-[(2,4-dichlorophenyl)thio]-2-methylpropanoyl}amino)-8-azabicyclo[3.2.1]oct-8-yl]pyridine-3-carboxamide] | < 200 |
| CC(C)(Oc1ccc(Cl)cc1-c1ccc(F)cc1)C(=O)N[C@H]1C[C@H]2CC[C@@H](C1)N2c1ccc(C(N)=O)cn1 [Example 277, 6-[3-endo-({2-[(5-chloro-4′-fluorobiphenyl-2-yl)oxy]-2-methylpropanoyl}amino)-8-azabicyclo[3.2.1]oct-8-yl]pyridine-3-carboxamide] | < 200 |
| CC(C)(Oc1c(F)cc(F)cc1F)C(=O)N[C@H]1C[C@H]2CC[C@@H](C1)N2c1ccc(S(C)(=O)=O)cn1 [Example 258, 2-methyl-N-{8-[5-(methylsulfonyl)pyridin-2-yl]-8-azabicyclo[3.2.1]oct-3-endo-yl}-2-[(2,4,6-trifluorophenyl)oxy]propanamide] | < 200 |
| CC(C)(C(=O)N[C@H]1C[C@H]2CC[C@@H](C1)N2c1ccc(C(=O)NC2CC2)cn1)c1cccc(Cl)c1 [Example 25, 6-(3-endo-{[2-(3-chlorophenyl)-2-methylpropanoyl]amino}-8-azabicyclo[3.2.1]oct-8-yl)-N-cyclopropylpyridine-3-carboxamide] | < 200 |
| CC(=O)c1ccc(N2[C@@H]3CC[C@H]2C[C@@H](NC(=O)C2(c4ccc(Cl)cc4)CC2)C3)nc1 [Example 57, N-[8-(5-acetylpyridin-2-yl)-8-azabicyclo[3.2.1]oct-3-endo-yl]-1-(4-chlorophenyl)cyclopropanecarboxamide] | < 200 |
| CC(C)(Oc1ncc(Cl)cc1Cl)C(=O)N[C@H]1C[C@H]2CC[C@@H](C1)N2c1ccc(S(C)(=O)=O)cc1 [Example 175, 2-[(3,5-dichloropyridin-2-yl)oxy]-2-methyl-N-{8-[4-(methylsulfonyl)phenyl]-8-azabicyclo[3.2.1]oct-3-endo-yl}propanamide] | < 200 |
| CC(C)(Oc1cc(CO)c(Cl)cc1Cl)C(=O)NC1CC2CCC(C1)N2c1ccc(C(=O)NCC(F)F)cn1 (stereo not drawn) [Example 428, 6-[3-endo-({2-[2,4-dichloro-5-(hydroxymethyl)phenoxy]-2-methylpropanoyl}amino)-8-azabicyclo[3.2.1]oct-8-yl]-N-(2,2-difluoroethyl)pyridine-3-carboxamide] | < 200 |
| CC(C)(C(=O)N[C@H]1C[C@H]2CC[C@@H](C1)N2c1ccc(C(N)=O)cn1)c1ccc(F)c(F)c1 [Example 165, 6-(3-endo-{[2-(3,4-difluorophenyl)-2-methylpropanoyl]amino}-8-azabicyclo[3.2.1]oct-8-yl)pyridine-3-carboxamide] | < 200 |
| CC(C)(Oc1cc(F)c(F)cc1Cl)C(=O)N[C@H]1C[C@H]2CC[C@@H](C1)N2c1ccc(S(N)(=O)=O)cn1 [Example 262, N-{8-[5-(aminosulfonyl)pyridin-2-yl]-8-azabicyclo[3.2.1]oct-3-endo-yl}-2-[(2-chloro-4,5-difluorophenyl)oxy]-2-methylpropanamide] | < 200 |
| CC(C)(Oc1cc(OCCN2CCOCC2)c(Cl)cc1Cl)C(=O)N[C@H]1C[C@H]2CC[C@@H](C1)N2c1ccc(C(=O)NCC(F)(F)F)cn1 [Example 407, 6-(3-endo-(2-(2,4-dichloro-5-(2-morpholinoethoxy)phenoxy)-2-methylpropanamido)-8-azabicyclo[3.2.1]octan-8-yl)-N-(2,2,2-trifluoroethyl)nicotinamide] | < 200 |
| CC(C)(Oc1ccc(Cl)cc1Cl)C(=O)N[C@H]1C[C@H]2CC[C@@H](C1)N2c1ncc(C(=O)NC2CC2)cc1Cl [Example 86, 5-chloro-N-cyclopropyl-6-[3-endo-({2-[(2,4-dichlorophenyl)oxy]-2-methylpropanoyl}amino)-8-azabicyclo[3.2.1]oct-8-yl]pyridine-3-carboxamide] | < 200 |
| C[C@H](NC(=O)c1ccc(N2C3CCC2CC(NC(=O)C(C)(C)Oc2ncc(F)cc2C(F)F)C3)nc1)C(F)(F)F (stereo partly drawn) [Example 439, 6-{3-endo-[(2-{[3-(difluoromethyl)-5-fluoropyridin-2-yl]oxy}-2-methylpropanoyl)amino]-8-azabicyclo[3.2.1]oct-8-yl}-N-[(2S)-1,1,1-trifluoropropan-2-yl]pyridine-3-carboxamide] | < 2000 |
| CC(C)(Oc1ccc(Cl)cc1Cl)C(=O)N[C@H]1C[C@H]2CC[C@@H](C1)N2c1ccc(S(C)(=O)=O)cc1 [Example 120, 2-[(2,4-dichlorophenyl)oxy]-2-methyl-N-{8-[4-(methylsulfonyl)phenyl]-8-azabicyclo[3.2.1]oct-3-endo-yl}propanamide] | < 200 |
